Consider five molecules from US20220404341A1, “METHODS AND APPARATUS FOR MEASURING IMMUNE MEDIATED TUMOROID RESPONSES” (VITROSCAN B.V., priority 2019, published 2022).

What all share (type): cell-based, human
The subject of one test is lung tumour sample. Kind of test: ex vivo 3D patient derived tumour culture with 3D imaging, lung tumour sample. The settings on record: FIG. 6.
The subject of test [1] is patient derived tumour cultures. Kind of test: Selection Factor (tumoroids' area decrease) across patient samples. The settings on record: for immune reaction reducing the number of tumour cells (Selection Factor metric across samples): FIGS. 8 and 9, alone or in combination, naïve patient sample; for Tumoroids' area decrease (%) as Selection Factor, effect when used alone: experiments shown in FIG. 8.

The test system of another test is ovarian cancer tumoroids. Kind of test: ex vivo 3D patient derived tumour culture with 3D imaging, ovarian cancer samples. The settings on record: for area size of small objects: FIG. 5 (same sample as FIG. 4).
Test [2] concerns Mesothelioma tumour sample. Kind of test: ex vivo 3D patient derived tumour culture with 3D imaging, mesothelioma sample. The settings on record: FIG. 3.
Another test has as its system IFN-γ. In words: IFN-γ production in treated patient derived tumour cultures. The settings on record: FIG. 7; IFN-γ is secreted by activated T-cells.

For the molecule nivolumab, the “immune-mediated tumoroid killing effect” value with lung tumour sample is recorded as “immune-mediated tumoroid killing effect”. Moreover, in test [1], the “immune reaction reducing the number of tumour cells (Selection Factor metric across samples)” value is “able to start an immune reaction that effectively reduced the number of tumour cells” and the “Tumoroids' area decrease (%) as Selection Factor, effect when used alone” value is reported as “do not show any effect when used alone”.

For the molecule pembrolizumab, the “immune-mediated tumoroid killing effect” value in the test on lung tumour sample was “immune-mediated tumoroid killing effect”. In addition, in test [1], the “immune reaction reducing the number of tumour cells (Selection Factor metric across samples)” value was “able to start an immune reaction that effectively reduced the number of tumour cells” and the “Tumoroids' area decrease (%) as Selection Factor, effect when used alone” value is recorded as “do not show any effect when used alone”. Also, the “immune-mediated tumoroid killing effect (area size reduction of tumoroid clusters)” value in the test on ovarian cancer tumoroids (ovarian tumour sample, FIG. 4) was “immune-mediated tumoroid killing effect”. Besides, the “area size of small objects” value in the test on ovarian cancer tumoroids (ovarian tumour sample) is recorded as “area size increase of small objects”.

In the case of `O=C(c1cc(Cc2n[nH]c(=O)c3ccccc23)ccc1F)N1CCN(C(=O)C2CC2)CC1` [olaparib], in test [1], the “immune reaction reducing the number of tumour cells (Selection Factor metric across samples)” value was “able to start an immune reaction that effectively reduced the number of tumour cells”.

`Nc1ncnc2c1ncn2[C@@H]1O[C@@H]2COP(=O)([S-])O[C@@H]3[C@H](O)[C@@H](COP([O-])(=S)O[C@H]2[C@H]1O)O[C@H]3n1cnc2c(N)ncnc21.[Na+].[Na+]` (stereo partly shown) [ADU-S100]: the “area size of small objects” value in the test with ovarian cancer tumoroids (ovarian tumour sample) is recorded as “area size increase of small objects”.

Consider ipilimumab, for which the “immune-mediated tumoroid killing effect” value (in the test with lung tumour sample; in test [2]) was “immune-mediated tumoroid killing effect” in each case. In addition, the “immune reaction reducing the number of tumour cells (Selection Factor metric across samples)” value in test [1] is recorded as “able to start an immune reaction that effectively reduced the number of tumour cells”. Also, the IFN-γ production entry with IFN-γ is listed as “increased”. In addition, the “activating native immune cells to kill tumoroids (total area of objects larger than 422 μm^2 and of objects smaller than 160 μm^2)” value in the test on ovarian cancer tumoroids (ovarian cancer samples of FIG. 1, one-sided Wilcoxon test) is listed as “effective in activating native immune cells to kill ovarian cancer tumoroids”. The “activating native immune cells to kill tumoroids” value in the test on ovarian cancer tumoroids (ovarian cancer samples of FIG. 2) is “does not show effectiveness in activating native immune cells to kill tumoroids”.
